We go through three molecules from patent US20050163850A1, “Administration of levodopa and carbidopa” (priority 2003, published 2005).

Several values for one entry are separate records, joined by “and”; a condition that tells them apart may be missing. Equal entries are not always repeated. Where two headings read alike, the source gives them in different places.

For data set [1] the following is noted: duodenal, 2 mg levodopa lauryl sulfate/rat (0.85 mg levodopa equivalent/rat), individual rats.
For data set [2] the following is noted: cited from earlier work.
The conditions of data set [3]: with carbidopa; cited from earlier work.
A short description of another data set: in vivo. The note with it: rat, plasma, iv, 0.4 mg/kg, Plasma level (levodopa), 0.4 mg levodopa/kg, individual rats 1-3 (Table D).
For data set [4] the following is noted: after oral administration; cited from earlier work.
Data set [5] can be described thus: Intravenous levodopa group of Example 10, levodopa plasma level. To be noted: 0.4 mg levodopa/kg, individual rats 1-3 (Table C). Type of data set: in vivo. The procedure: Another group of rats were treated with levodopa intravenously, at a dose of 0.4 mg/kg.
For data set [6] the following is noted: iv, 0.4 mg levodopa/kg, individual rats 1-3 (Table D).
The conditions of data set [7]: cited from earlier work. The source holds these as a separate data set.

On to `CCCCCCCCCCCCOS(=O)(=O)O.N[C@@H](Cc1ccc(O)c(O)c1)C(=O)O` [Levodopa lauryl sulfate, Levodopa-Lauryl Sulfate Complex], for which the “Plasma level (levodopa)” value in data set [1] (time 0 h) was 9.42 ng/mL and 8.7 ng/mL and 8.55 ng/mL; in data set [1] (time 1 h), 57.3 ng/mL and 51.3 ng/mL and 43.7 ng/mL; in data set [1] (time 2 h) it was 21.3 ng/mL and 22 ng/mL and 9.24 ng/mL; in data set [1] (time 3 h), 12 ng/mL and 11.6 ng/mL and 24 ng/mL; in data set [1] (time 4 h) it was 8.07 ng/mL and 7.45 ng/mL and 19.6 ng/mL.
For the molecule `C[C@@](Cc1ccc(O)c(O)c1)(NN)C(=O)O` [Carbidopa, (−)-L-((alpha)-hydrazino-((alpha)-methyl-(beta)-(3,4-dihydroxybenzene)propanoic acid monohydrate], the solubility in water result in data set [2] is “slightly soluble in water”.
Turning to `N[C@@H](Cc1ccc(O)c(O)c1)C(=O)O` [Levodopa, (−)-L-(alpha)-amino-(beta)-(3,4-dihydroxybenzene) propanoic acid], the “plasma half-life of levodopa” value in data set [3] was 1.5 h. Further, the solubility in water entry in data set [2] is given as “slightly soluble in water”. Besides, the concentration at 0 h in the data set “in vivo” stood at 0 ng/mL; in data set [5] (Sprague-Dawley, rat, plasma, 0.4 mg/kg, time 0 h) it was 0 ng/mL. Moreover, in data set [4], the “time within which practically all absorption of levodopa occurs” value was at most 4 h. In addition, the “Plasma level (levodopa)” value in data set [5] (time 0 h) is 0 ng/mL; in data set [5] (time 0.033 h) it was 336 ng/mL and 247 ng/mL and 690 ng/mL; in data set [5] (time 0.5 h), 16 ng/mL and 11.4 ng/mL and 41.6 ng/mL; in data set [5] (time 1 h), 7.34 ng/mL and 11.5 ng/mL and 18.2 ng/mL; in data set [5] (time 1.5 h), 6.51 ng/mL and 0 ng/mL and 13.8 ng/mL; in data set [5] (time 2 h), 0 ng/mL and 5.82 ng/mL and 8.23 ng/mL. Besides, the “Plasma level (levodopa)” value in data set [5] (time 3 h) was 0 ng/ml (2×) and 5.53 ng/ml; in data set [6] (time 0 h), 0 ng/mL; in data set [6] (time 0.033 h) it was 336 ng/mL and 247 ng/mL and 690 ng/mL; in data set [6] (time 0.5 h) it was 16 ng/mL and 11.4 ng/mL and 41.6 ng/mL; in data set [6] (time 1 h), 7.34 ng/mL and 11.5 ng/mL and 18.2 ng/mL; in data set [6] (time 1.5 h) it was 6.51 ng/mL and 0 ng/mL and 13.8 ng/mL. Moreover, the “Plasma level (levodopa)” value was 0 ng/mL and 5.82 ng/mL and 8.23 ng/mL in data set [6] (time 2 h); 0 ng/ml (2×) and 5.53 ng/ml in data set [6] (time 3 h). Besides, the “average intraindividual coefficient of variation for the plasma levodopa concentrations” value is reported as 34% in data set [7] (after oral therapy (sustained-release tablets)) and 14% in data set [7] (during continuous intestinal infusion, p<0.01).
